This is an account of results in PubChem BioAssay (NCI).

Among the test systems are LOX IMVI melanoma; SF-268 CNS; SK-MEL-2 melanoma; NCI-H522 lung; HT29 colon; NCI-H460 lung; OVCAR-8 ovarian; TK-10 renal.
Common to all, as to experiment: inhibition of tumour cell growth, NCI panel, 48 h

Several values for one entry are separate records, joined by “and”; a condition that tells them apart may be missing. Equal values may be shown once.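 Assay format: 96-well plates, 48-hour exposure. GI50 marks 50% less growth. Definition used: TGI = concentration required for complete inhibition of growth.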

As for `Oc1c(CN2CCN(c3ccccc3F)CC2)cc(Br)c2cccnc12`, the GI50 is 0.676 µM in the test with LOX IMVI melanoma; 0.858 µM in the test on SF-268 CNS; 7.65 µM in the test with SK-MEL-2 melanoma; 0.662 µM in the test with NCI-H522 lung; 11.3 µM in the test on HT29 colon; 0.4 µM in the test on NCI-H460 lung. For the same compound, the GI50 in the test with OVCAR-8 ovarian is 0.607 µM; in the test with TK-10 renal it was 5.45 µM. Moreover, the TGI with LOX IMVI melanoma was 10.3 µM; in the test with SF-268 CNS, above 100 µM; in the test on SK-MEL-2 melanoma, above 51.6 µM; in the test with NCI-H522 lung it was 5.05 µM; with HT29 colon, 40.5 µM; in the test with NCI-H460 lung, 9.26 µM. For the same compound, the values for the TGI in the test with OVCAR-8 ovarian and in the test with TK-10 renal were 14.5 µM and 29 µM, respectively.
In the case of `C[C@@H]1OCC2(CCN(c3cnc(Sc4ccnc(N)c4Cl)c(N)n3)CC2)[C@@H]1N`, the GI50 is above 100 µM in the test with LOX IMVI melanoma; 27.7 µM in the test on SF-268 CNS; above 100 µM in the test with SK-MEL-2 melanoma; 7.98 µM with NCI-H522 lung; above 100 µM in the test on HT29 colon; above 100 µM in the test on NCI-H460 lung. The figures for the GI50 in the test with OVCAR-8 ovarian and in the test with TK-10 renal were above 89.5 µM and 0.253 µM, respectively. Also, the TGI in the test with LOX IMVI melanoma, in the test on SF-268 CNS, with SK-MEL-2 melanoma, in the test on NCI-H522 lung, in the test on HT29 colon and with NCI-H460 lung was above 100 µM throughout. For the same compound, the TGI in the test on OVCAR-8 ovarian and with TK-10 renal was above 100 µM in each case.
On to `Clc1ccc2c(NCCNc3nc(N4CCCC4)nc4ccccc34)ccnc2c1`, for which the GI50 was 0.863 µM with LOX IMVI melanoma; 1.59 µM with SF-268 CNS; 1.86 µM in the test on SK-MEL-2 melanoma; 1.36 µM with NCI-H522 lung; 0.0943 µM in the test on HT29 colon; 0.22 µM in the test with NCI-H460 lung. In addition, the GI50 in the test on OVCAR-8 ovarian is 1.65 µM; in the test with TK-10 renal, 2.07 µM. The TGI amounted to 2.34 µM in the test with LOX IMVI melanoma; 5.41 µM with SF-268 CNS; 3.85 µM with SK-MEL-2 melanoma; 3.1 µM in the test with NCI-H522 lung; 1.39 µM in the test on HT29 colon; 0.506 µM in the test on NCI-H460 lung. Also, the results for the TGI in the test with OVCAR-8 ovarian and in the test with TK-10 renal were 4.12 µM and 4.2 µM, respectively.
With `COc1ccc(C2c3c(-c4ccccc4)nn(-c4ccccc4)c3Oc3ncn4nc(CC#N)nc4c32)cc1OC` (stereo not drawn), the GI50 in the test on LOX IMVI melanoma is 15.7 µM and 3.63 µM; in the test with SF-268 CNS, 16.6 µM and 3.29 µM; in the test with NCI-H522 lung, 40.2 µM and 4.62 µM; with HT29 colon, 99.9 µM and 14.8 µM; in the test on TK-10 renal, 27.8 µM and 3.31 µM. Moreover, the TGI in the test with LOX IMVI melanoma is 35.8 µM and 26.3 µM; in the test on SF-268 CNS, 42.5 µM and > 36.1 µM; with SK-MEL-2 melanoma, > 100 µM and 47.3 µM; in the test with NCI-H522 lung, > 100 µM and 15.7 µM; with HT29 colon, above 100 µM; in the test on NCI-H460 lung, > 100 µM and 46.7 µM. In addition, the TGI in the test on OVCAR-8 ovarian is above 100 µM; in the test with TK-10 renal it was > 100 µM and 14.6 µM.
As for `CCN1CCN(c2ccc(Nc3ncc4ccc5ncn(C(C)C)c5c4n3)nc2)CC1`, the GI50 with LOX IMVI melanoma is 0.116 µM; in the test with SF-268 CNS, 0.117 µM; with SK-MEL-2 melanoma it was 0.144 µM; in the test on NCI-H522 lung, 0.208 µM; with HT29 colon, 0.0489 µM; with NCI-H460 lung, 0.0777 µM. The GI50 is 0.311 µM in the test on OVCAR-8 ovarian and 0.0359 µM with TK-10 renal. Moreover, the TGI came to 0.556 µM in the test on LOX IMVI melanoma; 0.47 µM with SF-268 CNS; 0.357 µM in the test with SK-MEL-2 melanoma; 0.809 µM in the test on NCI-H522 lung; 15.5 µM in the test with HT29 colon; 0.68 µM in the test with NCI-H460 lung. The TGI in the test with OVCAR-8 ovarian is 16.3 µM; in the test with TK-10 renal, 0.873 µM.
Consider `Nc1ccc(-c2ccc(-c3nc4cc(Cl)c(Cl)cc4[nH]3)cc2)cc1`, for which the GI50 in the test on LOX IMVI melanoma is 0.0361 µM; with SK-MEL-2 melanoma, 2.46 µM; with NCI-H522 lung, 1.03 µM; in the test on HT29 colon, 1.42 µM; in the test on NCI-H460 lung, 0.878 µM; with OVCAR-8 ovarian, 14.5 µM. For the same compound, in the test with TK-10 renal, the GI50 was 1.63 µM. In addition, the TGI in the test on LOX IMVI melanoma was above 25.8 µM; in the test on SF-268 CNS, 9.24 µM; in the test with SK-MEL-2 melanoma it was above 100 µM; with NCI-H522 lung, above 80.9 µM; in the test with HT29 colon, above 100 µM; in the test on NCI-H460 lung it was above 31.9 µM. Besides, the TGI in the test with OVCAR-8 ovarian was above 92.9 µM; in the test with TK-10 renal it was 37.4 µM.
Regarding `COc1cc(N2CCC(N3CCN(C)CC3)CC2)ccc1Nc1ncc(Cl)c(Nc2ccccc2S(=O)(=O)C(C)C)n1`, the GI50 was 0.332 µM with LOX IMVI melanoma; 0.813 µM in the test on SF-268 CNS; 1.33 µM with SK-MEL-2 melanoma; 0.525 µM in the test on NCI-H522 lung; 0.0612 µM in the test with HT29 colon; 0.604 µM in the test with NCI-H460 lung. For the same compound, the values for the GI50 in the test with OVCAR-8 ovarian and in the test on TK-10 renal were 2.1 µM and 0.79 µM, respectively. For the same compound, the TGI with LOX IMVI melanoma turned out to be 1.47 µM; in the test on SF-268 CNS, 2.44 µM; in the test on SK-MEL-2 melanoma, 3.45 µM; in the test with NCI-H522 lung, 2.03 µM; in the test on HT29 colon, 0.617 µM; in the test on NCI-H460 lung it was 5.11 µM. Moreover, the TGI with OVCAR-8 ovarian was found to be 7.76 µM; with TK-10 renal it was 2.43 µM.
Regarding `CNC(=O)CN1CCC(Oc2cc3c(Nc4cccc(Cl)c4F)ncnc3cc2OC)CC1`, the GI50 in the test with LOX IMVI melanoma is 8.12 µM and > 5.06 µM; in the test with SF-268 CNS, 8.25 µM and 4.25 µM; in the test with SK-MEL-2 melanoma it was 16.7 µM and > 7.55 µM; with NCI-H522 lung, 0.143 µM and 0.0614 µM; in the test on HT29 colon, 11.6 µM and > 7.06 µM; in the test with NCI-H460 lung, 28.1 µM and > 6.73 µM. The GI50 with OVCAR-8 ovarian was 8.25 µM and > 5.04 µM; with TK-10 renal, 0.0237 µM and 0.00744 µM. For the same compound, the TGI with LOX IMVI melanoma was 20.9 µM and > 10 µM; in the test on SF-268 CNS, above 45.2 µM; in the test with SK-MEL-2 melanoma, 34.1 µM and > 10 µM; in the test on NCI-H522 lung it was 20.4 µM and > 10 µM; in the test with HT29 colon, 32.6 µM and > 10 µM; in the test on NCI-H460 lung, above 100 µM. In addition, the TGI in the test on OVCAR-8 ovarian was above 77.3 µM; in the test on TK-10 renal, 14.8 µM and > 10 µM.
Turning to `CC1=CC(=O)c2ccc(C)cc2C1=O`, the TGI in the test on LOX IMVI melanoma is 17.5 µM; with SF-268 CNS, 38.4 µM; with SK-MEL-2 melanoma, 44.3 µM; in the test with NCI-H522 lung, 18.5 µM; in the test on HT29 colon, above 100 µM; in the test with NCI-H460 lung it was 32.4 µM. Besides, the results for the TGI in the test on OVCAR-8 ovarian and in the test with TK-10 renal were 26.8 µM and 34 µM, respectively.
As for `COc1ccc2c(c1)C(=O)c1c-2c(NCCN(C)C)nc2ccccc12`, the GI50 in the test on LOX IMVI melanoma is 2.01 µM; with SF-268 CNS, 2.97 µM; in the test on SK-MEL-2 melanoma, 15.7 µM; in the test with NCI-H522 lung it was 6.92 µM; in the test on HT29 colon it was 4.41 µM; in the test with NCI-H460 lung it was 0.671 µM. For the same compound, the GI50 with OVCAR-8 ovarian was 0.496 µM; in the test on TK-10 renal it was 8.19 µM. The TGI is 11.6 µM in the test on LOX IMVI melanoma; 15.5 µM in the test with SF-268 CNS; 31 µM in the test on SK-MEL-2 melanoma; 20.9 µM with NCI-H522 lung; 15.5 µM in the test with HT29 colon; 10.6 µM with NCI-H460 lung. Moreover, the TGI in the test on OVCAR-8 ovarian is 5.53 µM; in the test with TK-10 renal, 28.8 µM.
